Measured values: US8846928B2 (Portola Pharmaceuticals, Inc., priority 2010, dated 2014)

Target: T1, full length active recombinant SYK enzyme (Homo sapiens, UniProt P43405)
T1 construct: full length active recombinant SYK enzyme (Millipore, Calif.); purchased Millipore
Experiment: Inhibition of Syk tyrosine phosphorylation activity (LANCE TR-FRET kinase assay)
Format: biochemical
Procedure: Inhibition of Syk Tyrosine Phosphorylation Activity
Potency of candidate molecules for inhibiting Syk tyrosine phosphorylation activity is assessed by measuring the ability of a test compound to inhibit Syk-mediated tyrosine phosphorylation of a Syk-specific substrate.
SYK tyrosine phosphorylation activity is measured using the LANCE™ Technology developed by Perkin Elmer Life and Analytical Sciences (Boston, Mass.). LANCE™ refers to homogeneous time resolved fluorometry applications using techniques such as time-resolved fluorescence resonance energy transfer assay (TR-FRET) (see generally for procedures in Perkin Elmer Application Note—How to Optimize a Tyrosine Kinase Assay Using Time Resolved Fluorescence-Based LANCE Detection, wwww.perkinelmer.com/lifesciences). The assay principle involves detection of a phosphorylated substrate using energy transfer from a phosphospecific europium-labeled antibody to streptavidin-allophycocyanin as an acceptor.
To test the ability of candidate molecules to inhibit SYK tyrosine phosphorylation activity, molecules are reconstituted in 30% DMSO and serially diluted 1:3 with the final dilution containing DMSO in the absence of the candidate molecule. The final DMSO concentration in the assay is 3%. Kinase assays are performed as a two part reaction. […] The second reaction involves termination of the kinase reaction and the simultaneous addition of the detection reagents—europium-labeled anti-phosphotyrosine reagent (Eu-W1024-PY100, Perkin Elmer, Boston, Mass.) and Streptavidin-Allophycocyanin detection reagent (SA-APC, Prozyme, Calif.). The kinase reaction is performed in a black U-bottom 96-well microtitre plate. The final reaction volume is 50 μL and contains a final concentration of 1 nM active SYK enzyme, 550 nM SYK-substrate, and 100 μM ATP diluted in a buffer containing 50 mM Tris pH 7.5, 5 mM MgCl2, and 1 mM DTT. The reaction is allowed to proceed for 1 hour at room temperature. The quench buffer contains 100 mM Tris pH 7.5, 300 mM NaCl2, 20 mM EDTA, 0.02% Brij35, and 0.5% BSA. The detection reagents are added to the reaction mixture at the following dilutions-1:500 for Eu-W1024-PY100 and 1:250 for SA-APC. The kinase reaction is terminated by the addition of 50 μL quench buffer containing the detection reagents. The detection is allowed to proceed for 1 hr at room temperature. Detection of the phosphorylated substrate in the absence and presence of inhibitors is measured in the TR-FRET instrument, Analyst HT (Molecular Probes, Sunnyvale, Calif.) and the condition for measurements are set up using CriterionHost Release 2.0 (Molecular Probes, Sunnyvale, Calif.). The settings used are a follows: excitation 360 nm, emission 665-7.5 nm, beam splitter 350 nm 50/50, flash 100 pulses, delay 60 us, integration 400 us, z-height 2 mm. […] IC50s were derived by non-linear regression analysis. […]

| Structure (SMILES) | IC50 [nM] |
| --- | --- |
| Cc1cc(Nc2cc(NC[C@@H](N)CC(C)C)ccc2C(N)=O)sn1 [Example 32, (S)-4-(2-amino-4-methylpentylamino)-2-(3-methylisothiazol-5-ylamino)benzamide] | 100 to 1000 |
| CC[C@@H](Nc1ccc(C(N)=O)c(Nc2cc(C)ns2)c1)C(N)=O [Example 33, (R)-4-(1-amino-1-oxobutan-2-ylamino)-2-(3-methylisothiazol-5-ylamino)benzamide] | 10 to 100 |
| Cc1cc(Nc2cc(N[C@@H](C(N)=O)C3CC3)ccc2C(N)=O)sn1 [Example 34] | 10 to 100 |
| Cc1cc(Nc2cc(N[C@H](CC3CC3)C(N)=O)ccc2C(N)=O)sn1 [Example 35, (R)-4-(1-amino-3-cyclopropyl-1-oxopropan-2-ylamino)-2-(3-methylisothiazol-5-ylamino)benzamide] | 10 to 100 |
| COc1ccc(C[C@@H](Nc2cc(Nc3cc(C)ns3)c(C(N)=O)cc2F)C(N)=O)cc1 [Example 36, (R)-4-(1-amino-3-(4-methoxyphenyl)-1-oxopropan-2-ylamino)-5-fluoro-2-(3-methylisothiazol-5-ylamino)benzamide] | 10 to 100 |
| Cc1cc(Nc2cc(N[C@H](Cc3cccc(F)c3)C(N)=O)c(F)cc2C(N)=O)sn1 [Example 37, (R)-4-(1-amino-3-(3-fluorophenyl)-1-oxopropan-2-ylamino)-5-fluoro-2-(3-methylisothiazol-5-ylamino)benzamide] | 10 to 100 |
| Cc1cc(Nc2cc(N[C@H](Cc3ccncc3)C(N)=O)c(F)cc2C(N)=O)sn1 [Example 38, (R)-4-(1-amino-1-oxo-3-(pyridin-4-yl)propan-2-ylamino)-5-fluoro-2-(3-methylisothiazol-5-ylamino)benzamide] | 100 to 1000 |
| Cc1cc(Nc2cc(N[C@H](Cc3cccnc3)C(N)=O)c(F)cc2C(N)=O)sn1 [Example 39, (R)-4-(1-amino-1-oxo-3-(pyridin-3-yl)propan-2-ylamino)-5-fluoro-2-(3-methylisothiazol-5-ylamino)benzamide] | 100 to 1000 |
| COC[C@@H](Nc1cc(Nc2cc(C)ns2)c(C(N)=O)cc1F)C(N)=O [Example 40, (R)-4-(1-amino-3-methoxy-1-oxopropan-2-ylamino)-5-fluoro-2-(3-methylisothiazol-5-ylamino)benzamide] | 10 to 100 |
| NC(=O)c1cc(F)c(N[C@@H]2CCCC[C@@H]2N)nc1Nc1cccc(-n2cncn2)c1 [Example 42, 2-(3-(1H-1,2,4-triazol-1-yl)phenylamino)-6-((1R,2S)-2-aminocyclohexylamino)-5-fluoronicotinamide] | 1 to 10 |
| NC(=O)c1cc(F)c(N[C@@H]2CCCC[C@@H]2N)nc1Nc1cccc(N2CCCC2)c1 [Example 47, 6-((1R,2S)-2-aminocyclohexylamino)-5-fluoro-2-(3-(pyrrolidin-1-yl)phenylamino)nicotinamide] | 1 to 10 |
| NC(=O)c1cc(F)c(N[C@@H]2CCCC[C@@H]2N)nc1Nc1cccc(N2CCOCC2)c1 [Example 48, 6-((1R,2S)-2-aminocyclohexylamino)-5-fluoro-2-(3-morpholinophenylamino)nicotinamide] | 10 to 100 |
| NC(=O)c1cc(F)c(N[C@@H]2CCCC[C@@H]2N)nc1Nc1ccc(N2CCCC2)cc1 [Example 53, 6-((1R,2S)-2-aminocyclohexylamino)-5-fluoro-2-(4-(pyrrolidin-1-yl)phenylamino)nicotinamide] | 10 to 100 |
| NC(=O)c1cc(F)c(N[C@@H]2CCCC[C@@H]2N)nc1Nc1ccc(N2CCOCC2)cc1 [Example 54, 6-((1R,2S)-2-aminocyclohexylamino)-5-fluoro-2-(4-morpholinophenylamino)nicotinamide] | 10 to 100 |
| NC(=O)c1cc(F)c(N[C@@H]2CCCC[C@@H]2N)nc1Nc1cccc(-c2ncccn2)c1 [Example 55, 6-((1R,2S)-2-aminocyclohexylamino)-5-fluoro-2-(3-(pyrimidin-2-yl)phenylamino)nicotinamide] | 1 to 10 |
| NC(=O)c1cc(F)c(N[C@@H]2CCCC[C@@H]2N)nc1Nc1cccc(-c2cncnc2)c1 [Example 57, 6-((1R,2S)-2-aminocyclohexylamino)-5-fluoro-2-(3-(pyrimidin-5-yl)phenylamino)nicotinamide] | 1 to 10 |

Next, values leading:

| IC50 [nM] | Structure (SMILES) |
| --- | --- |
| 1 to 10 | NC(=O)c1cc(F)c(N[C@@H]2CCCC[C@@H]2N)nc1Nc1cccc(-n2nccn2)c1 [Example 41, 2-(3-(2H-1,2,3-triazol-2-yephenylamino)-6-(1R,2S)-2-aminocyclohexylamino)-5-fluoronicotinamide] |
| 1 to 10 | NC(=O)c1cc(F)c(N[C@@H]2CCCC[C@@H]2N)nc1Nc1cccc(-n2ccnn2)c1 [Example 43] |
| 1 to 10 | NC(=O)c1cc(F)c(N[C@@H]2CCCC[C@@H]2N)nc1Nc1cccc(-n2cnnn2)c1 [Example 44, 2-(3-(1H-tetrazol-1-yl)phenylamino)-6-((1R,2S)-2-aminocyclohexylamino)-5-fluoronicotinamide] |
| 1 to 10 | NC(=O)c1cc(F)c(N[C@@H]2CCCC[C@@H]2N)nc1Nc1cccc(-n2cccn2)c1 [Example 45, 2-(3-(1H-pyrazol-1-yl)phenylamino)-6-((1R,2S)-2-aminocyclohexylamino)-5-fluoronicotinamide] |
| 1 to 10 | NC(=O)c1cc(F)c(N[C@@H]2CCCC[C@@H]2N)nc1Nc1cccc(-n2ccnc2)c1 [Example 46, 2-(3-(1H-imidazol-1-yl)phenylamino)-6-((1R,2S)-2-aminocyclohexylamino)-5-fluoronicotinamide] |
| 10 to 100 | NC(=O)c1cc(F)c(N[C@@H]2CCCC[C@@H]2N)nc1Nc1ccc(-n2nccn2)cc1 [Example 49, 2-(4-(2H-1,2,3-triazol-2-yephenylamino)-6-(1R,2S)-2-aminocyclohexylamino)-5-fluoronicotinamide] |
| 1 to 10 | NC(=O)c1cc(F)c(N[C@@H]2CCCC[C@@H]2N)nc1Nc1ccc(-n2cncn2)cc1 [Example 50] |
| 1 to 10 | NC(=O)c1cc(F)c(N[C@@H]2CCCC[C@@H]2N)nc1Nc1ccc(-n2ccnc2)cc1 [Example 51, 2-(4-(1H-imidazol-1-yl)phenylamino)-6-((1R,2S)-2-aminocyclohexylamino)-5-fluoronicotinamide] |
| 1 to 10 | NC(=O)c1cc(F)c(N[C@@H]2CCCC[C@@H]2N)nc1Nc1ccc(-n2cccn2)cc1 [Example 52, 2-(4-(1H-pyrazol-1-yl)phenylamino)-6-((1R,2S)-2-aminocyclohexylamino)-5-fluoronicotinamide] |
| 1 to 10 | NC(=O)c1cc(F)c(N[C@@H]2CCCC[C@@H]2N)nc1Nc1cccc(-c2ccncn2)c1 [Example 56, 6-((1R,2S)-2-aminocyclohexylamino)-5-fluoro-2-(3-(pyrimidin-4-yl)phenylamino)nicotinamide] |
| 1 to 10 | NC(=O)c1cc(F)c(N[C@@H]2CCCC[C@@H]2N)nc1Nc1ccc(-c2ncccn2)cc1 [Example 58, 6-((1R,2S)-2-aminocyclohexylamino)-5-fluoro-2-(4-(pyrimidin-2-yl)phenylamino)nicotinamide] |
| 1 to 10 | NC(=O)c1cc(F)c(N[C@@H]2CCCC[C@@H]2N)nc1Nc1ccc(-c2ccncn2)cc1 [Example 59, 6-(1R,2S)-2-aminocyclohexylamino)-5-fluoro-2-(4-(pyrimidin-4-yephenylamino)nicotinamide] |
| < 1 | NC(=O)c1cc(F)c(N[C@@H]2CCCC[C@@H]2N)nc1Nc1ccc2ncsc2c1 [Example 60, 6-((1R,2S)-2-aminocyclohexylamino)-2-(benzo[d]thiazol-6-ylamino)-5-fluoronicotinamide] |
| 1 to 10 | NC(=O)c1cc(F)c(N[C@@H]2CCCC[C@@H]2N)nc1Nc1ccc2nccn2c1 [Example 61, 6-((1R,2S)-2-aminocyclohexylamino)-5-fluoro-2-(imidazo[1,2-a]pyridin-6-ylamino)nicotinamide] |
| 1 to 10 | NC(=O)c1cc(F)c(N[C@@H]2CCCC[C@@H]2N)nc1Nc1ccn2ccnc2c1 [Example 62, 6-((1R,2S)-2-aminocyclohexylamino)-5-fluoro-2-(imidazo[1,2-a]pyridin-7-ylamino)nicotinamide] |
| 1 to 10 | Cn1ccc2cc(Nc3nc(N[C@@H]4CCCC[C@@H]4N)c(F)cc3C(N)=O)ccc21 [Example 63, 6-((1R,2S)-2-aminocyclohexylamino)-5-fluoro-2-(1-methyl-1H-indol-5-ylamino)nicotinamide] |
